Measurements reported in patent publication US20250065017A1, “Fractionating Extracellular Matrix to Modulate Bioactivity and the Host Response” (University of Pittsburgh - Of the Commonwealth System of …, priority 2014, published 2025).

Tested on: THP1 cells
Test: CD206 and CD86 expression by western blot
Format: cell-based, human
Settings: Aspirin 200 μM with UBM hydrogel
Protocol: THP-1 human monocytes were obtained from the American Tissue Culture Collection (ATCC, Manassas, VA) and maintained in RPMI, 10% FBS, 1% penicillin/streptomycin, 2 mM L-glutamine, and 1 mM sodium pyruvate in a humidified atmosphere at 37° C. with 5% CO2. For experiments, 500,000 THP-1 cells/mL were plated with 320 nM phorbol 12-myristate 13-acetate (PMA) for 24 hours to induce differentiation into macrophages. Adherent macrophages were washed in PBS and placed in fresh media, followed by a 24 hour incubation to acquiesce.
THP1 macrophage-like cells prepared as described in the cell culture section had 200 μM Aspirin added (where appropriate) 1 hour prior to UBM hydrogel (0.5 mg/mL) treatment. Cells were then treated with UBM hydrogel for 4, 8, or 24 hours. At the specified time points, cells were washed extensively with 1× PBS and lysis buffer (50 mM Tris, 20 mM NaCl, 1% Triton X-100) was added. Cells were mechanically removed from the culture dish, transferred to centrifuge tubes and incubated on ice for 10 minutes. Lysates were spun down at 14000 rpm for 20 minutes at 4° C. to remove any debris. The clarified lysate was stored at −80° C. Lysates were diluted 1:1 in 2× Laemmli Sample Buffer (Bio-Rad, Hercules, CA) and boiled at 95° C. for 5 minutes. Samples were then resolved on 9% SDS-PAGE gels (National Diagnostics) and transferred to polyvinyldifluoride (PVDF, Millipore) membranes. Membranes were blocked with 1:1 Odyssey Blocking Buffer:1×PBS (Licor) overnight at 4° C. Blocked membranes were immunoblotted with either rabbit anti-human COX2 (1:5,000, Abcam), goat anti-human CD206 (1:3,000, Santa-Cruz), rabbit anti-human CD86 (1:5,000, Abcam), or mouse anti-human β-Actin (1:5,000, Abcam) in blocking buffer for 1 hour at room temperature with agitation. Membranes were extensively washed with TBST before the appropriate secondary antibodies (1:10,000, donkey anti-goat IR Dye 680, donkey-anti rabbit IR Dye 680, and donkey anti-mouse IR Dye 800, Licor) in imaging buffer (1:1 Odyssey Blocking Buffer, 0.02% SDS in TBST) were added for 30 minutes with agitation. […]

Structure (SMILES): CC(=O)Oc1ccccc1C(=O)O [Aspirin]
- maximum increase in CD86 expression (at 24 hours): 0.15 fold
- reduction in CD206 expression (at 24 hours): 91%
- CD206 expression (early time points): did not alter CD206 expression
